{"source": "patent US6969702B2", "about": "“Compounds and methods for increasing neurogenesis” (priority 2002, dated 2005)", "test_system": "mouse adult neural stem cells", "experiment": "ATP-assay: proliferation (ATP levels) of neurosphere-derived cells", "settings": "for ATP (nM ATP/well) / Fold Induction ATP: Table 4; for Fold Induction ATP: vs vehicle", "note": "Marks after values point to notes of the source that are not given here. Peptide text beside a SMILES is read from it.", "data": [{"smiles": "CC(C)Cn1c(=O)n(C)c(=O)c2[nH]cnc21", "note": "[IBMX, 3-Isobutyl-1-Methylxanthine]", "values": [{"measurement": "proliferation of neural stem cells", "setting": "cAMP activators, GPCR-independent", "result": "increase"}]}, {"smiles": "CC(C)C[C@H](NC(=O)[C@H](CCCCN)NC(=O)CNC(=O)[C@H](CC(C)C)NC(=O)[C@@H](N)C(C)C)C(=O)N[C@@H](CO)C(=O)N[C@@H](CCC(N)=O)C(=O)N[C@@H](CCC(=O)O)C(=O)N[C@@H](CC(C)C)C(=O)N[C@@H](Cc1c[nH]cn1)C(=O)N[C@@H](CCCCN)C(=O)N[C@@H](CC(C)C)C(=O)N[C@@H](CCC(N)=O)C(=O)N[C@H](C(=O)N[C@@H](Cc1ccc(O)cc1)C(=O)N1CCC[C@H]1C(=O)N[C@@H](CCCNC(=N)N)C(=O)N[C@H](C(=O)N[C@@H](CC(N)=O)C(=O)N[C@H](C(=O)NCC(=O)N[C@@H](CO)C(=O)NCC(=O)N[C@H](C(=O)N1CCC[C@H]1C(N)=O)[C@@H](C)O)[C@@H](C)O)[C@@H](C)O)[C@@H](C)O", "note": "(H-VLGKLSQELHKLQTYPRTNTGSGTP-NH2; N-terminus and C-terminus assumed)", "values": [{"measurement": "ATP (nM ATP/well)", "setting": "100 nM", "result": "15.0 ± 2.2", "unit": "nM ATP/well"}]}, {"smiles": "CC[C@H](C)[C@H](NC(=O)[C@H](CC(=O)O)NC(=O)[C@H](CC(C)C)NC(=O)[C@H](Cc1cnc[nH]1)NC(=O)[C@@H]1CSSC[C@H](N)C(=O)N[C@@H](CO)C(=O)N[C@H]2CSSC[C@H](NC(=O)[C@H](CCC(=O)O)NC(=O)[C@H](CCCCN)NC(=O)[C@H](CC(=O)O)NC(=O)[C@H](CCSC)NC(=O)[C@H](CC(C)C)NC(=O)[C@H](CO)NC(=O)[C@H](CO)NC2=O)C(=O)N[C@@H](C(C)C)C(=O)N[C@@H](Cc2ccc(O)cc2)C(=O)N[C@@H](Cc2ccccc2)C(=O)N1)C(=O)N[C@H](C(=O)N[C@@H](Cc1c[nH]c2ccccc12)C(=O)O)[C@@H](C)CC", "note": "[Endothelin-1 (human, Bovine, Canine, Mouse, Porcine, Rat)]", "values": [{"measurement": "ATP (nM ATP/well)", "setting": "10 nM", "result": "14.4 ± 2.4", "unit": "nM ATP/well"}, {"measurement": "Fold Induction ATP", "setting": "10 nM, 0.01 µM", "result": "3.2* fold"}]}, {"smiles": "CC[C@H](C)[C@@H]1NC(=O)[C@H](CCCNC(=N)N)NC(=O)[C@H](CC(=O)O)NC(=O)[C@H](CCSC)NC(=O)[C@H](CCCNC(=N)N)NC(=O)CNC(=O)CNC(=O)[C@H](Cc2ccccc2)NC(=O)[C@@H](NC(=O)[C@H](CO)NC(=O)[C@H](CO)NC(=O)[C@H](CCCNC(=N)N)NC(=O)[C@H](CCCNC(=N)N)NC(=O)[C@H](CC(C)C)NC(=O)[C@@H](N)CO)CSSC[C@@H](C(=O)N[C@@H](CC(N)=O)C(=O)N[C@@H](CO)C(=O)N[C@@H](Cc2ccccc2)C(=O)N[C@@H](CCCNC(=N)N)C(=O)N[C@@H](Cc2ccc(O)cc2)C(=O)O)NC(=O)CNC(=O)[C@H](CC(C)C)NC(=O)CNC(=O)[C@H](CO)NC(=O)[C@H](CCC(N)=O)NC(=O)[C@H](C)NC(=O)CNC1=O", "note": "[ANP (human)]", "values": [{"measurement": "ATP (nM ATP/well)", "setting": "10 nM", "result": "12.7 ± 1.0", "unit": "nM ATP/well"}, {"measurement": "Fold Induction ATP", "setting": "10 nM", "result": "1.3* fold"}]}]}
